Measurements reported in US20240317780A1, “RADIOPHARMACEUTICAL SOMATOSTATIN RECEPTOR LIGANDS AND PRECURSORS THEREOF” (Technische Universität München, priority 2021, published 2024).

Target: T1, SST2 (Homo sapiens, UniProt P30874)
T1 construct: expressed in transfected cells; host or cells: CHO (Chinese hamster ovary) cells
Assay: Determination of IC50: competitive binding against [125I]TOC on SST2-transfected CHO cells
Settings: [125I]TOC reference radioligand, 60 min room temperature
Protocol: The SST2-transfected CHO cells were cultivated in Dulbecco's Modified Eagle Medium/Nutrient Mixture F-12 (DMEM/F-12) with Glutamax-I (1:1) (Gibco), supplemented with 10% fetal calf serum (FCS) and maintained at 37° C. in a humidified 5% CO2 atmosphere. […] After removal of the culture medium, the cells were treated once with 300 μL of HBSS-B (Hank's balanced salt solution, Biochrom, Berlin, Germany, with addition of 1% bovine serum albumin (BSA)) and left with 200 μL HBSS-B. Next, 25 μL per well of solutions, containing either HBSS-B (control) or the respective ligand in increasing concentration (10^−10-10^−4 M in HBSS-B, were added with subsequent addition of 25 μL of
[^125I]TOC ([^125I]Tyr^3-Octreotide) (1.0 nM) in HBSS-B. Each concentration is investigated in triplicate. After 60 min incubation at room temperature, the experiment was terminated by removal of the assay medium and consecutive rinsing with 300 μL of cold PBS. The media of both steps were combined in one fraction and represent the amount of unbound radioligand.
Afterwards, the cells were lysed with 300 μL of 1 M NaOH and united with the 300 μL 1 M NaOH of the following wash step. Quantification of bound and unbound radioligand was accomplished in a γ-counter.

T1 sequence (P30874 whole entry, species assumed): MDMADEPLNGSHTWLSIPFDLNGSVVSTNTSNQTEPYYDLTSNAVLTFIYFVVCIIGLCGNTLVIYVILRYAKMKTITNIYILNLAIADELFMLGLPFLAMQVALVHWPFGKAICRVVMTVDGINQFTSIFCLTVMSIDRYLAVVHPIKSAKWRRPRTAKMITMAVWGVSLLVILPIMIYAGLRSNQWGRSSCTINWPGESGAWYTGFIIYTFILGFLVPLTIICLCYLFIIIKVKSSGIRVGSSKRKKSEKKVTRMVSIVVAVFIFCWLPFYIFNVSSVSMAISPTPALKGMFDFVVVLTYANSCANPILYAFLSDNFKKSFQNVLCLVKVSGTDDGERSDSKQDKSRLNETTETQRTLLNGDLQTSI

Row | SMILES | IC50
1 | C[C@@H](O)[C@H](NC(=O)C1CSSCC(NC(=O)C(Cc2ccccc2)NC(=O)[C@@H](CC(N)=O)NC(=O)C(CC(N)=O)NC(=O)CNC(=O)C(CC(=O)O)NC(=O)[C@@H](CC(=O)O)NC(=O)C(CNC(=O)CN2CCN(CC(=O)O)CCN(CC(=O)O)CCN(CC(=O)O)CC2)NC(=O)C[N+](C)(C)Cc2ccc([Si](F)(C(C)(C)C)C(C)(C)C)cc2)C(=O)N[C@@H](Cc2ccc(O)cc2)C(=O)NC(Cc2c[nH]c3ccccc23)C(=O)N[C@@H](CCCCN)C(=O)N[C@@H]([C@@H](C)O)C(=O)N1)C(=O)O (stereo partly drawn) (natGa complex, metal not drawn) [[Ga]49] | 6.31 ± 0.99 nM
2 | C[C@@H](O)[C@H](NC(=O)C1CSSCC(NC(=O)C(Cc2ccccc2)NC(=O)CNC(=O)CNC(=O)CNC(=O)C(CC(=O)O)NC(=O)[C@@H](CC(=O)O)NC(=O)C(CCCNC(N)=O)NC(=O)[C@@H](CNC(=O)C[N+](C)(C)Cc2ccc([Si](F)(C(C)(C)C)C(C)(C)C)cc2)NC(=O)CN2CCN(CC(=O)O)CCN(CC(=O)O)CCN(CC(=O)O)CC2)C(=O)N[C@@H](Cc2ccc(O)cc2)C(=O)NC(Cc2c[nH]c3ccccc23)C(=O)N[C@@H](CCCCN)C(=O)N[C@@H]([C@@H](C)O)C(=O)N1)C(=O)O (stereo partly drawn) (natLu complex, metal not drawn) [[Lu]46] | 4.07 ± 0.52 nM
3 | C[C@@H](O)[C@H](NC(=O)C1CSSCC(NC(=O)C(Cc2ccccc2)NC(=O)CNC(=O)CNC(=O)CNC(=O)C(CC(=O)O)NC(=O)[C@@H](CC(=O)O)NC(=O)C(CNC(=O)C[N+](C)(C)Cc2ccc([Si](F)(C(C)(C)C)C(C)(C)C)cc2)NC(=O)CN2CCN(CC(=O)O)CCN(CC(=O)O)CCN(CC(=O)O)CC2)C(=O)N[C@@H](Cc2ccc(O)cc2)C(=O)NC(Cc2c[nH]c3ccccc23)C(=O)N[C@@H](CCCCN)C(=O)N[C@@H]([C@@H](C)O)C(=O)N1)C(=O)O (stereo partly drawn) (natLu complex, metal not drawn) [[Lu]44] | 3.86 ± 0.23 nM

Tested on: not listed separately
Assay: Octanol-water distribution coefficient (logD pH 7.4) of the labeled tracer
Type: physicochemical
Settings: n-octanol/PBS pH 7.4, room temperature
Protocol: Approximately 1 MBq of the labeled tracer was dissolved in 1 mL of a 1:1 mixture (by volumes) of phosphate buffered saline (PBS, pH 7.4) and n-octanol in an Eppendorf tube. After vigorous mixing of the suspension for 3 minutes at room temperature, the vial was centrifuged at 15000 g for 5 minutes (Biofuge 15, Heraus Sepatech, Osterode, Germany) and 100 μL aliquots of both layers were measured in a gamma counter. The experiment was repeated at least six times.

Row | SMILES | LogDpH=7.4
4 | C[C@@H](O)[C@H](NC(=O)C1CSSCC(NC(=O)C(Cc2ccccc2)NC(=O)COCCOCCNC(=O)C(CC(=O)O)NC(=O)[C@@H](CC(=O)O)NC(=O)C(CNC(=O)CN2CCN(CC(=O)O)CCN(CC(=O)O)CCN(CC(=O)O)CC2)NC(=O)c2ccc([Si](F)(C(C)(C)C)C(C)(C)C)cc2)C(=O)N[C@@H](Cc2ccc(O)cc2)C(=O)NC(Cc2c[nH]c3ccccc23)C(=O)N[C@@H](CCCCN)C(=O)N[C@@H]([C@@H](C)O)C(=O)N1)C(=O)O (stereo partly drawn) (natGa complex, metal not drawn) [[Ga]4] | −2.15 ± 0.11
5 | C[C@@H](O)[C@H](NC(=O)C1CSSCC(NC(=O)C(Cc2ccccc2)NC(=O)CNC(=O)CNC(=O)CNC(=O)C(CC(=O)O)NC(=O)[C@@H](CC(=O)O)NC(=O)C(CCCCN)NC(=O)[C@@H](CNC(=O)C[N+](C)(C)Cc2ccc([Si](F)(C(C)(C)C)C(C)(C)C)cc2)NC(=O)CN2CCN(CC(=O)O)CCN(CC(=O)O)CCN(CC(=O)O)CC2)C(=O)N[C@@H](Cc2ccc(O)cc2)C(=O)NC(Cc2c[nH]c3ccccc23)C(=O)N[C@@H](CCCCN)C(=O)N[C@@H]([C@@H](C)O)C(=O)N1)C(=O)O (stereo partly drawn) [[Lu]45] | −2.10 ± 0.08
6 | C[C@@H](O)[C@H](NC(=O)C1CSSCC(NC(=O)C(Cc2ccccc2)NC(=O)CNC(=O)CNC(=O)[C@@H](CC(=O)O)NC(=O)C(CC(=O)O)NC(=O)[C@@H](CNC(=O)CN2CCN(CC(=O)O)CCN(CC(=O)O)CCN(CC(=O)O)CC2)NC(=O)C[N+](C)(C)Cc2ccc([Si](F)(C(C)(C)C)C(C)(C)C)cc2)C(=O)N[C@@H](Cc2ccc(O)cc2)C(=O)NC(Cc2c[nH]c3ccccc23)C(=O)N[C@@H](CCCCN)C(=O)N[C@@H]([C@@H](C)O)C(=O)N1)C(=O)O (stereo partly drawn) [[Lu]24] | −1.90 ± 0.05
7 | C[C@@H](O)[C@H](NC(=O)C1CSSCC(NC(=O)C(Cc2ccccc2)NC(=O)COCCOCCNC(=O)C(CC(=O)O)NC(=O)[C@@H](CC(=O)O)NC(=O)C(CNC(=O)CCC(C(=O)O)N2CCN(CC(=O)O)CCN(CC(=O)O)CCN(CC(=O)O)CC2)NC(=O)c2ccc([Si](F)(C(C)(C)C)C(C)(C)C)cc2)C(=O)N[C@@H](Cc2ccc(O)cc2)C(=O)NC(Cc2c[nH]c3ccccc23)C(=O)N[C@@H](CCCCN)C(=O)N[C@@H]([C@@H](C)O)C(=O)N1)C(=O)O (stereo partly drawn) (natGa complex, metal not drawn) [[Ga]2] | −2.3 ± 0.09
8 | C[C@@H](O)[C@H](NC(=O)C1CSSCC(NC(=O)C(Cc2ccccc2)NC(=O)COCCOCCNC(=O)C(CC(=O)O)NC(=O)[C@@H](CC(=O)O)NC(=O)C(CNC(=O)c2ccc([Si](F)(C(C)(C)C)C(C)(C)C)cc2)NC(=O)CN2CCN(CC(=O)O)CCN(CC(=O)O)CCN(CC(=O)O)CC2)C(=O)N[C@@H](Cc2ccc(O)cc2)C(=O)NC(Cc2c[nH]c3ccccc23)C(=O)N[C@@H](CCCCN)C(=O)N[C@@H]([C@@H](C)O)C(=O)N1)C(=O)O (stereo partly drawn) (natGa complex, metal not drawn) [[Ga]3] | −1.87 ± 0.07
9 | C[C@@H](O)[C@H](NC(=O)C1CSSCC(NC(=O)C(Cc2ccccc2)NC(=O)CNC(=O)CNC(=O)CNC(=O)C(CC(=O)O)NC(=O)[C@@H](CC(=O)O)NC(=O)C(CCC(=O)O)NC(=O)[C@@H](CNC(=O)C[N+](C)(C)Cc2ccc([Si](F)(C(C)(C)C)C(C)(C)C)cc2)NC(=O)CN2CCN(CC(=O)O)CCN(CC(=O)O)CCN(CC(=O)O)CC2)C(=O)N[C@@H](Cc2ccc(O)cc2)C(=O)NC(Cc2c[nH]c3ccccc23)C(=O)N[C@@H](CCCCN)C(=O)N[C@@H]([C@@H](C)O)C(=O)N1)C(=O)O (stereo partly drawn) [[Lu]47] | −2.29 ± 0.03
10 | C[C@@H](O)[C@H](NC(=O)C1CSSCC(NC(=O)C(Cc2ccccc2)NC(=O)CNC(=O)CNC(=O)CNC(=O)C(CC(=O)O)NC(=O)[C@@H](CC(=O)O)NC(=O)C(CNC(=O)C[N+](C)(C)Cc2ccc([Si](F)(C(C)(C)C)C(C)(C)C)cc2)NC(=O)CN2CCN(CC(=O)O)CCN(CC(=O)O)CCN(CC(=O)O)CC2)C(=O)N[C@@H](Cc2ccc(O)cc2)C(=O)NC(Cc2c[nH]c3ccccc23)C(=O)N[C@@H](CCCCN)C(=O)N[C@@H]([C@@H](C)O)C(=O)N1)C(=O)O (stereo partly drawn) [[Lu]44] | −1.98 ± 0.05
11 | C[C@@H](O)[C@H](NC(=O)C1CSSCC(NC(=O)C(Cc2ccccc2)NC(=O)COCCOCCNC(=O)C(CC(=O)O)NC(=O)[C@@H](CC(=O)O)NC(=O)C(CNC(=O)c2ccc([Si](F)(C(C)(C)C)C(C)(C)C)cc2)NC(=O)CCC(C(=O)O)N2CCN(CC(=O)O)CCN(CC(=O)O)CCN(CC(=O)O)CC2)C(=O)N[C@@H](Cc2ccc(O)cc2)C(=O)NC(Cc2c[nH]c3ccccc23)C(=O)N[C@@H](CCCCN)C(=O)N[C@@H]([C@@H](C)O)C(=O)N1)C(=O)O (stereo partly drawn) (natGa complex, metal not drawn) [[Ga]1] | −2.02 ± 0.04
12 | C[C@@H](O)[C@H](NC(=O)C1CSSCC(NC(=O)C(Cc2ccccc2)NC(=O)[C@@H](CC(N)=O)NC(=O)C(CC(N)=O)NC(=O)[C@@H](CC(=O)O)NC(=O)C(CC(=O)O)NC(=O)[C@@H](CNC(=O)CN2CCN(CC(=O)O)CCN(CC(=O)O)CCN(CC(=O)O)CC2)NC(=O)C[N+](C)(C)Cc2ccc([Si](F)(C(C)(C)C)C(C)(C)C)cc2)C(=O)N[C@@H](Cc2ccc(O)cc2)C(=O)NC(Cc2c[nH]c3ccccc23)C(=O)N[C@@H](CCCCN)C(=O)N[C@@H]([C@@H](C)O)C(=O)N1)C(=O)O (stereo partly drawn) [[Lu]48] | −2.19 ± 0.05
13 | C[C@@H](O)[C@H](NC(=O)C1CSSCC(NC(=O)C(Cc2ccccc2)NC(=O)CNC(=O)CNC(=O)CNC(=O)C(CC(=O)O)NC(=O)[C@@H](CC(=O)O)NC(=O)C(CCCNC(N)=O)NC(=O)[C@@H](CNC(=O)C[N+](C)(C)Cc2ccc([Si](F)(C(C)(C)C)C(C)(C)C)cc2)NC(=O)CN2CCN(CC(=O)O)CCN(CC(=O)O)CCN(CC(=O)O)CC2)C(=O)N[C@@H](Cc2ccc(O)cc2)C(=O)NC(Cc2c[nH]c3ccccc23)C(=O)N[C@@H](CCCCN)C(=O)N[C@@H]([C@@H](C)O)C(=O)N1)C(=O)O (stereo partly drawn) [[Lu]46] | −2.12 ± 0.05
14 | C[C@@H](O)[C@H](NC(=O)C1CSSCC(NC(=O)C(Cc2ccccc2)NC(=O)CNC(=O)CNC(=O)[C@@H](CC(=O)O)NC(=O)C(CC(=O)O)NC(=O)[C@@H](CNC(=O)CN2CCN(CC(=O)O)CCN(CC(=O)O)CCN(CC(=O)O)CC2)NC(=O)C(CN)NC(=O)c2ccc([Si](F)(C(C)(C)C)C(C)(C)C)cc2)C(=O)N[C@@H](Cc2ccc(O)cc2)C(=O)NC(Cc2c[nH]c3ccccc23)C(=O)N[C@@H](CCCCN)C(=O)N[C@@H]([C@@H](C)O)C(=O)N1)C(=O)O (stereo partly drawn) [[Lu]19] | −1.85 ± 0.02
15 | C[C@@H](O)[C@H](NC(=O)C1CSSCC(NC(=O)C(Cc2ccccc2)NC(=O)[C@@H](CC(N)=O)NC(=O)C(CC(N)=O)NC(=O)CNC(=O)C(CC(=O)O)NC(=O)[C@@H](CC(=O)O)NC(=O)C(CNC(=O)CN2CCN(CC(=O)O)CCN(CC(=O)O)CCN(CC(=O)O)CC2)NC(=O)C[N+](C)(C)Cc2ccc([Si](F)(C(C)(C)C)C(C)(C)C)cc2)C(=O)N[C@@H](Cc2ccc(O)cc2)C(=O)NC(Cc2c[nH]c3ccccc23)C(=O)N[C@@H](CCCCN)C(=O)N[C@@H]([C@@H](C)O)C(=O)N1)C(=O)O (stereo partly drawn) [[Lu]49] | −2.24 ± 0.06
